Reference: paper PMC5736207 (PLoS ONE, 2017)
Blank lines part the entries; values can stand above or below the compound they belong to.

Key:
[1] = target: T1, PMM2 (phosphomannomutase2) (Homo sapiens, UniProt O15305); experiment: thermal shift assay, Sypro Orange; type: binding; conditions: 0-1 mM Glc-1,6-P2; MgCl2 1 mM, pH 7.5
T1 construct: recombinant, E. coli BL21(DE3), purified as in earlier work; no tag mentioned
T1 sequence (O15305 2-246): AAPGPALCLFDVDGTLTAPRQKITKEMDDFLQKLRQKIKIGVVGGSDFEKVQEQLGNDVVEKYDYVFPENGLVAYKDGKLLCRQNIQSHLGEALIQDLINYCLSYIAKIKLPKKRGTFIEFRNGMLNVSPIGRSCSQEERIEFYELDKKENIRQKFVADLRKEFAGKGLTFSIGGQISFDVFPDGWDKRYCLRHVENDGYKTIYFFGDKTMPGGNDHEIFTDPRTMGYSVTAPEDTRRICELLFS

[2] = target: T2, PMM1 (phosphomannomutase1) (Homo sapiens, UniProt Q92871); experiment: thermal shift assay, Sypro Orange; type: binding; conditions: 0-1 mM Glc-1,6-P2; MgCl2 1 mM, pH 7.5
T2 construct: recombinant, E. coli BL21(DE3), purified as in earlier work (DEAE, butyl Sepharose); dimer; no tag mentioned
T2 sequence (Q92871 2-262): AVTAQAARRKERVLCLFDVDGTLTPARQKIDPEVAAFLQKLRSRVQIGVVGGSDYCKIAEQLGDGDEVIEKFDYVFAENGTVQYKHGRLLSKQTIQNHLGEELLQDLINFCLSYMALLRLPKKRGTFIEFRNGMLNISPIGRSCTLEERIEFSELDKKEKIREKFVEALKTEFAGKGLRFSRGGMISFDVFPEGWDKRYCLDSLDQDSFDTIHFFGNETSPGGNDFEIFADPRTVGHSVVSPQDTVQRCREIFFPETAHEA

[3] = target: T2, PMM1 (phosphomannomutase1); experiment: coupled NADPH assays of phosphoglucomutase and Glc-1,6-P2 phosphatase activity; type: biochemical; conditions: PGM: 40 μM Glc-1-P, 27 μM Glc-1,6-P2, phosphatase: 0.145 mM Glc-1,6-P2
[4] = target: T1, PMM2 (phosphomannomutase2); experiment: coupled NADPH assay of phosphoglucomutase activity; type: biochemical; conditions: 27 μM Glc-1,6-P2; MgCl2 5 mM, pH 7.5, 32°C

Tm [1]: The bis-phosphate hexose binds PMM2
SMILES: O=P(O)(O)OC[C@H]1O[C@H](OP(=O)(O)O)[C@H](O)[C@@H](O)[C@@H]1O [Glc-1,6-P2]
Tm [2]: effect of Glc-1,6-P2 on the melting temperature of PMM1 is seen only at very high concentrations

SMILES: O=P(O)(O)C(Cl)(Cl)P(=O)(O)O [clodronate, (Dichloro-phosphono-methyl)phosphonic acid]
activity at 2.8 mM clodronate [3]: clodronate as a novel specific inhibitor of PMM1 that decreases both PGM and Glc-1,6-P2-ase activities

SMILES: O=P(O)(O)O[C@H]1O[C@H](CO)[C@@H](O)[C@H](O)[C@H]1O [Glc-1-P]
Km [4]: 8.2 ± 0.7 µM
